Reference: patent US20020052390A1, “METHODS AND MATERIALS FOR TREATING AND PREVENTING INFLAMMATION OF MUCOSAL TISSUE” (priority 1997, published 2002)
In brackets after ≈: the same amount, converted by molar mass. Several values for one entry are separate records, joined by “and”; a condition that tells them apart may be missing. Equal values may be shown once. Read-outs that look alike come from different tables or passages of the source.

Tests used:
[1] = test system: Geotrichum; assay: MIC, macro broth dilution technique (NCCLS), isolates from rhinosinusitis patients; assay type: cell-based; settings: 48 hour MIC reading
Method: (§1) The following procedure was used to determine effective antifungal agents as well as effective concentrations of antifungal agents such that the fungal organisms isolated from patients can be prevented from growing or killed.
(§2) Seventeen fungal isolates were collected from eight rhinosinusitis patients and tested for susceptibility against amphotericin B, ketoconazole, and itraconazole. Each antifungal agent was tested on these fungal isolates using the macro broth dilution technique according to the National Committee on Clinical Laboratory Standards (NCCLS) protocol. […] The results from this procedure provided an estimate of the efficacy of antifungal agents against specific fungal isolates in vitro.

[2] = test system: Trichoderma; assay: as above; assay type: cell-based; settings: 48 hour MIC reading
Method: as §1, §2

[3] = test system: non-invasive fungus-induced rhinosinusitis patients; assay: Amphotericin B nasal irrigation study, three month follow-up (Example 2); assay type: in vivo, human
Description: In addition to patient interviewing, CT scan analysis, visual examination, and fungal culture analysis, two types of evaluations were used to score the success of the treatment: an endoscopic evaluation and a patient symptom evaluation.

[4] = test system: fungal organisms within their mucus; assay: Analysis of mucus samples of non-responding patients for resistance; assay type: cell-based; settings: five of the nine non-responding patients
Description: Eleven of the 53 patients went from endoscopic evaluation stage 2 or 3 to stage 1 after three months. […] Five of the nine non-responding patients had previously collected mucus samples that were available for examination.

[5] = test system: patient with rhinosinusitis; assay: Single patient study, one-sided then two-sided amphotericin B irrigation, RAST assay to Alternaria; assay type: in vivo, human
Description: In addition, the previously detected fungal load in the initially untreated side (right side) was sufficient to eventually cause presentation of visual or palpable rhinosinusitis symptoms in that initially untreated side. Further, the fungal organisms present in the initially untreated side (right side) induced high IgE titers, as shown by IgE readings from the RAST assays, independent of concurrent reduction of fungal organisms by antifungal treatment applied to the left side. In this case, a reduction of IgE readings from the RAST assays was only observed after irrigating both sides with an antifungal agent. Thus, the reduction of IgE and the prevention of disease symptoms coincided with the treatment of both sides with an antifungal agent.

[6] = test system: non-invasive fungus-induced rhinosinusitis patients; assay: Patient data collected during a one week period (amphotericin B nasal irrigations); assay type: in vivo, human; set-up: Endoscopy Score B / Endoscopy Score A / Symptom Score B: scale not given here
Description: In addition to patient interviewing, CT scan analysis, visual examination, and fungal culture analysis, two types of evaluations were used to score the success of the treatment: an endoscopic evaluation and a patient symptom evaluation. These evaluations were scored as follows:
Only previously seen patients that were instructed to use the antifungal amphotericin B nasal irrigations were entered into this study.
During a one week period, twenty patients returned to the physician's office (Table II). The average age of the returning patients was 47 years (range 16-74 years). The patients were using the amphotericin B irrigations for an average duration of about six months (range 1-16 months). […] In addition, some patients were using topical and systemic steroid therapy. Further, some patients were using an antibiotic nasal irrigation in addition to the antifungal irrigations. The antibacterial solution contained 80 mg gentamicin per L saline (Wilson's solution). Some patients mixed the antibacterial solution with the antifungal solution and then performed the nasal irrigations while others used each solution separately in a sequential manner. Some patients also had other diseases including asthma (15 of the 20 patients) and colitis (2 of the 20 patients).

[7] = test system: non-invasive fungus-induced rhinosinusitis patients; assay: Amphotericin B irrigations in patients without previous nasal surgery (Example 3); assay type: in vivo, human
Description: A person was diagnosed with non-invasive fungus-induced rhinosinusitis and instructed to perform amphotericin B irrigations twice a day.
A person was diagnosed with non-invasive fungus-induced rhinosinusitis and instructed to perform amphotericin B irrigations twice a day, which was later increased to four times a day.
A person was diagnosed with non-invasive fungus-induced rhinosinusitis and instructed to perform amphotericin B irrigations twice a day. This patient had been given intramuscular steroid shots every 3 to 8 months with the last shot being administered about seven months prior to starting the amphotericin B irrigations.

[8] = test system: non-invasive fungus-induced rhinosinusitis patient; assay: Eosinophil count in mucosal biopsies after amphotericin B irrigations (Example 4); assay type: in vivo, human
Description: A person was diagnosed with non-invasive fungus-induced rhinosinusitis and instructed to perform amphotericin B irrigations twice a day. After nine months of amphotericin B irrigations, the patient underwent sinus surgery for further improvement. During the surgery mucosal biopsies were collected and the eosinophil count compared to the those obtained from biopsies collected from the patient during a surgery prior to the antifungal treatment.

[9] = test system: patients with chronic asthma; assay: Chronic asthma symptoms in patients of the Example 2 study (Example 5); assay type: in vivo, human
Method: One hundred and thirty-two consecutive rhinosinusitis patients were entered into a study to evaluate the use of an antifungal agent to treat non-invasive fungus-induced rhinosinusitis. […] The 125 non-invasive fungus-induced rhinosinusitis patients were started on an antifungal treatment of about 20 mL of an amphotericin B solution per nostril, two to four times daily for at least three months. The concentration of the amphotericin B solution was about 100 mg per liter of saline or water. A 20 mL bulb was used by the patient to mucoadminister the amphotericin B solution into the patient's nasal-paranasal anatomy. Data were compiled for 53 of the patients who had returned for their three month follow-up analysis.

[10] = test system: non-invasive fungus-induced rhinosinusitis patients; assay: Itraconazole nasal irrigation (Example 7); assay type: in vivo, human; settings: for adverse local reaction to nasal irrigations: third patient
Method: Three non-invasive fungus-induced rhinosinusitis patients (person, person, and person) were instructed to perform nasal irrigation with an itraconazole solution. The itraconazole solution contained about 100 mg of itraconazole per L of solution (10% PEG-400 in sterile water) and was prepared as described herein. […] Each patient reported marked improvement in symptoms within two weeks of starting the itraconazole irrigations (symptom scores: -1 to +2 and -1 to +1).
After treatment with itraconazole, that patient reported symptom improvement (symptom score: from -1 to 0).

[11] = test system: Candida; assay: MIC, macro broth dilution technique (NCCLS), isolates from rhinosinusitis patients; assay type: cell-based; settings: 48 h, 48 hour MIC reading, each table line is one isolate
Method: as §1, §2

[12] = test system: Cladosporium; assay: as above; assay type: cell-based; settings: 48 h, 48 hour MIC reading, each table line is one isolate
Method: as §1, §2

[13] = test system: Penicillium; assay: as above; assay type: cell-based; settings: 48 h, 48 hour MIC reading, each table line is one isolate
Method: as §1, §2

[14] = Concentrations of itraconazole in solution by HPLC; assay type: physicochemical; settings: read-out: Soluble Itraconazole Concentration
Method: Itraconazole formulations were made by dissolving itraconazole into polyethylene glycol (PEG) to form an itraconazole stock solution. […] Typically, PEG 400 was used to dissolve the itraconazole. Once dissolved, the stock solution was filtered to remove any insoluble material. Then, the stock solution was prepared for use by dilution with sterile water. […] One liter of heated (70° C.) PEG-400 was added to the graduated cylinder containing the itraconazole. The mixture was then placed onto a stirring hot plate and maintained at 70° C. for 30 minutes. After 30 minutes, the hot suspension was filtered through a urine stone filter into a glass container and allowed to cool to room temperature. Once cooled, 100 mL of the filtered solution was placed into an empty plastic bottle. Then, 900 mL of sterile water was added and the solution mixed. Once mixed, one drop of flavoring was added (peppermint oil). […] The following concentrations of itraconazole were determined for each indicated solution by HPLC (Table III).

[15] = test system: patient with asthma symptoms; assay: Itraconazole nasal irrigation in an asthma patient, pulmonary function (Example 8); assay type: in vivo, human; settings: before antifungal treatment
Method: Sputum and nasal-paranasal mucus samples were collected and analyzed.
The concentration of the itraconazole solution was about 100 mg per liter. After a few weeks, the patient took their last course of systemic steroids. About two months after stopping the systemic steroids, the patient also stopped using the topical steroids as well as the bronchodilator.

[16] = Oral itraconazole capsule, drug remaining in the bowel lumen (Example 10); assay type: in vivo, human; settings: 100 mg capsule before bedtime, two hours after last meal, without cola
Description: Three out of five consecutive patients with chronic rhinosinusitis reported having a history of colitis. […] Each patient was instructed to take the capsule before bedtime a minimum of two hours after their last meal and without any cola. Food and cola beverages increase absorption of the drug.

[17] = patient symptom evaluation after treatment, 53 patients
[18] = after antifungal treatment (1-16 months, 1-2 x day), each table line is one patient
[19] = before antifungal treatment, each table line is one patient
[20] = sixteen days after starting the itraconazole irrigations

Question: What does the source list for `C[C@@H]1[C@H](O)[C@@H](C)/C=C/C=C/C=C/C=C/C=C/C=C/C=C/[C@H](O[C@@H]2O[C@H](C)[C@@H](O)[C@H](N)[C@@H]2O)C[C@@H]2O[C@](O)(C[C@@H](O)C[C@@H](O)[C@H](O)CC[C@@H](O)C[C@@H](O)CC(=O)O[C@H]1C)C[C@H](O)[C@H]2C(=O)O` [Amphotericin B, amphotericin B]?
Answer: MIC [1]: 0.1 µg/mL (≈ 0.108 µM); MIC [2]: 4 µg/mL (≈ 4.33 µM); patients who went from endoscopic evaluation stage 2 or 3 to stage 0 ([3]; about 20 mL amphotericin B solution (about 100 mg per liter) per nostril, two to four times daily, after three months, 53 patients): 33 of the 53; CT scan finding ([3]; one patient with bilateral rhinosinusitis, 20 mL (100 mg/L) per nostril two times daily, after four months): complete disappearance of opacity and symptoms characteristic of rhinosinusitis; patients giving themselves symptom stage 0 [3, 17]: six of the 53; patients giving themselves symptom stage 1 [3, 17]: three of the 53; patients giving themselves symptom stage 2 [3, 17]: 44 of the 53; patients who did not respond to the treatment (endoscopic evaluation) ([3]; same regimen, after three months, 53 patients): nine; number of different fungal species in mucus after treatment ([3]; several patients, mucus cultured before and after antifungal treatment): remarkably reduced; susceptibility of fungal organisms in mucus of non-responding patients [4]: resistant; RAST reading to Alternaria ([5]; after right-side surgery and treatment of both sides for about seven weeks): 4.47 KU/L; clinical status ([5]; after treatment of both sides for about seven weeks): symptom-free; Endoscopy Score A [6, 18]: 0 (10×) and 3 (5×) and 1 (2×); Symptom Score A [6, 18]: +1 (6×) and +2 (6×) and 0 (6×) and −2 and 1; Endoscopy Score B [6, 19]: 1 (3×) and 2 (5×) and 3 (10×) and 0; Symptom Score B [6, 19]: −1 (14×) and −2 (6×); endoscopic evaluation of rhinosinusitis condition ([6]; most of twenty patients): observable improvement; endoscopic score after treatment ([7]; amphotericin B irrigations twice (to four times) a day for four to sixteen months): 0; symptom score before treatment ([7]; patients without previous nasal surgery): −1; eosinophil count in mucosal biopsies ([8]; all the sinuses except the frontal, after nine months of irrigations twice a day): < 5%; eosinophil count in the frontal sinus biopsy ([8]; frontal sinus (obstructed, irrigation presumably did not reach it), after nine months): 10%; asthmatic patients declaring an improvement or complete elimination of asthma symptoms ([9]; after three months of antifungal treatment, 37 asthmatic patients): 28 of the 37; patients with improved pulmonary function (pulmonary function test before and after) ([9]; four patients tested): all four; patients who stopped taking their asthma medication ([9]; of the 28 patients no longer exhibiting asthma symptoms): 26 of the 28; adverse local reaction to nasal irrigations [10]: burning sensation

Question: Which results are given for `CCC(C)n1ncn(-c2ccc(N3CCN(c4ccc(OCC5COC(Cn6cncn6)(c6ccc(Cl)cc6Cl)O5)cc4)CC3)cc2)c1=O` (centres unmarked) [Itraconazole, itraconazole]?
Answer: MIC [11]: 0.03 µg/mL (≈ 0.0425 µM); MIC [12]: 0.125 µg/mL (≈ 0.177 µM); MIC [13]: 0.5 µg/mL (≈ 0.709 µM); solubility ([14]; PEG-400, organic solvent or mixture, 500 mg Itraconazole powder AS into 250 mL PEG-400 (stock solution)): 1950 µg/mL (≈ 2760 µM); solubility at 30 min ([14]; PEG-400, organic solvent or mixture, 2000 mg Itraconazole from capsules into 1 L PEG-400 (stock solution)): 1840 µg/mL (≈ 2610 µM); solubility ([14]; PEG-400/sterile water solution, aqueous with cosolvent or surfactant or cyclodextrin, kinetic from dmso stock, 100 mL capsule stock solution diluted with 900 mL sterile water): 113 µg/mL (≈ 160 µM); solubility ([14]; PEG-400/sterile water solution, aqueous with cosolvent or surfactant or cyclodextrin, kinetic from dmso stock, 100 mL capsule stock solution plus 25 mL PEG-400 diluted with 875 mL sterile water): 155 µg/mL; solubility ([14]; PEG-400/sterile water solution, aqueous with cosolvent or surfactant or cyclodextrin, kinetic from dmso stock, 100 mL capsule stock solution plus 150 mL PEG-400 diluted with 750 mL sterile water): 179 µg/mL; solubility ([14]; PEG-400/sterile water solution, aqueous with cosolvent or surfactant or cyclodextrin, kinetic from dmso stock, 100 mL powder AS stock solution diluted with 900 mL sterile water): 85 µg/mL (≈ 120 µM); symptom score before itraconazole irrigations ([10]; itraconazole solution about 100 mg per L (10% PEG-400 in sterile water)): -1; endoscopic score, left side, before ([10]; one patient): 1; endoscopic score, right side, before ([10]; one patient): 1; endoscopic score, left side, after [10, 20]: 1; endoscopic score, right side, after [10, 20]: 0; adverse local reaction to nasal irrigations [10]: did not have any adverse local reaction; forced expiratory volume in 1 second (FEV1) before treatment [15]: 3.34 L; forced vital capacity (FVC) before treatment [15]: 3.99 L; maximal forced expiratory flow (FEFmax) before treatment [15]: 9.1 liter per second; maximum voluntary ventilation (MVV) before treatment [15]: 119 liter per minute; itraconazole that should remain in the bowel lumen [16]: about 50%

Question: With `CC(=O)N1CCN(c2ccc(OCC3COC(Cn4ccnc4)(c4ccc(Cl)cc4Cl)O3)cc2)CC1` (centres unmarked) [Ketoconazole, ketoconazole] as the compound, how does the MIC ([1]; read-out: MIC) read?
Answer: The MIC was 0.05 µg/mL (≈ 0.0941 µM).

Question: And the MIC ([2]; read-out: MIC)?
Answer: Its MIC is 50 µg/mL (≈ 94.1 µM).
